Laboratory results published in patent US7414154B2, “Polyamine compounds and compositions for use in conjunction with cancer therapy” (Wisconsin Alumni Research Foundation, priority 2002, dated 2008).

Key:
[1] = test system: 23SK skin cells; assay: cell cycle distribution by flow cytometry; assay type: cell-based, human; details: 23SK cells
Description: FIGS. 5A-5D are cell histograms showing the results from flow cytometry analysis of chemoprotective polyamine-treated 23SK skin cells.
In FIG. 5, cell histograms showing the results from flow cytometry analysis of chemoprotective polyamine-treated 23SK skin cells are shown. […] The transient nature of the cell cycle block induced by chemoprotective polyamines is believed to be an important aspect of their efficacy, i.e., their ability to block cell cycle progression in stem cells during the course of chemo- or radiotherapy, and the resumption of normal stem cell division after a given cancer therapy course has been completed.

[2] = test system: p21 protein in 23SK human skin cells; assay: p21 induction by western analysis; assay type: cell-based; details: 30 hr exposure
Description: FIGS. 3A and 3B illustrate the level of induced p21 protein seen in diploid human fibroblasts after a 30 hr exposure to each of the indicated chemoprotective polyamines. […] In these experiments, the 23SK human skin cells were exposed for 30 hr to an “IC80” dose of each of the indicated chemoprotective polyamines and then lysed. Cell extracts were then prepared in order to measure p21 levels by western analysis (FIG. 3A).
FIG. 3 illustrates that chemoprotective polyamines are able to induce expression of the negative cell cycle regulatory protein, p21, after exposing the human skin cells to the polyamine molecules. […] In these experiments, the 23SK human skin cells were exposed for 30 hr to an “IC80” dose of each of the indicated chemoprotective polyamines and then lysed. Cell extracts were then prepared in order to measure p21 levels by western analysis (FIG. 3A). Although the ability of modified polyamines to induce p21 is known in the literature (Kramer, D. et al., Cancer Res. 59:1278-1286, 1999), it is a novel aspect of this invention that those chemoprotective polyamines with longer aliphatic “arms” were better able to induce expression of p21 as shown in FIG. 4.

Structure (SMILES) | Cell Cycle Distribution At IC80 Dose (%) G1 [1] [%] | Cell Cycle Distribution At IC80 Dose (%) G2/M [1] [%] | Cell Cycle Distribution At IC80 Dose (%) S [1] [%] | p21 fold-induction at IC80 Dose [2] [fold]
CCNCCCCNCCCCNCCCCNCCCCNCC=C(CNCCCCNCCCCNCCCCNCCCCNCC)CN(C)C [PrC-121] | 76 | 20 | 4 | –
CCNCCCCNCCCCNCCCCNCCCCNCC=C(CS)CNCCCCNCCCCNCCCCNCCCCNCC [PrC-117] | 86 | 3 | 11 | ~3.0
CCNCCCCNCCCCNCCCCNCC=C(CS)CNCCCCNCCCCNCCCCNCC [PrC-116] | 66 | 23 | 11 | –
